Experimental data as given in the NIST ThermoML archive (doi:10.1016/j.jct.2007.01.013).
± gives the expanded uncertainty stated by the source.

Key:
[1] = Liquid; for mass density: 101.33 kPa; for Normal boiling temperature: Distillation
[2] = refractive index (Na D-line) (dimensionless); details: 293.15 K; 101.33 kPa; Liquid; Standard Abbe refractometry

Row | mass density ([1]; 298 K) [kg/m3] | SMILES | mass density ([1]; 293.15 K) [kg/m3] | Normal boiling temperature [1] [°C] | refractive index [2]
1 | – | CCCCOC(=O)c1ccccc1C(=O)OCCCC [dibutyl phthalate] | 1046.54 ± 0.79 | 340.1 ± 0.2 | 1.49114 ± 0.0007
2 | – | COC(=O)c1ccccc1C(=O)OC [dimethyl 1,2-benzenedicarboxylate] | 1190.53 ± 1.5 | 283.6 ± 0.2 | 1.51384 ± 0.0007
3 | 884.35 ± 1 | CCOC(=O)CC [ethyl propanoate] | – | 99.1 ± 0.2 | 1.38394 ± 0.0007
